According to PMC12678337, “EAR-20 peptide, a novel NMDA receptor positive allosteric modulator” (Frontiers in Pharmacology, 2025):
No end group written: not given here.

Tests used:
[1] = system: GluN1-GluN2A receptors; details: channel blocker; ref Wang et al., 2021; cited from earlier work
[2] = system: GluN1-GluN2B^ΔNTD; assay: whole-cell patch clamp, ifenprodil inhibition of NTD-deleted GluN1-GluN2B; assay type: cell-based; details: 10 µM ifenprodil co-applied with agonists; HEK-293
[3] = system: synaptic NMDARs, cultured hippocampal neurons; assay type: cell-based, rat
[4] = system: triheteromeric NMDARs (GluN1, GluN2A, GluN2B); details: cited from earlier work
[5] = target: T1, GluN1-GluN2B (Rattus norvegicus, UniProt P35439+Q00960); assay type: cell-based
T1 construct: GFP (N); expressed in transfected cells; host or cells: HEK-293T
T1 sequence (Q00960 27-1482, other chains not shown): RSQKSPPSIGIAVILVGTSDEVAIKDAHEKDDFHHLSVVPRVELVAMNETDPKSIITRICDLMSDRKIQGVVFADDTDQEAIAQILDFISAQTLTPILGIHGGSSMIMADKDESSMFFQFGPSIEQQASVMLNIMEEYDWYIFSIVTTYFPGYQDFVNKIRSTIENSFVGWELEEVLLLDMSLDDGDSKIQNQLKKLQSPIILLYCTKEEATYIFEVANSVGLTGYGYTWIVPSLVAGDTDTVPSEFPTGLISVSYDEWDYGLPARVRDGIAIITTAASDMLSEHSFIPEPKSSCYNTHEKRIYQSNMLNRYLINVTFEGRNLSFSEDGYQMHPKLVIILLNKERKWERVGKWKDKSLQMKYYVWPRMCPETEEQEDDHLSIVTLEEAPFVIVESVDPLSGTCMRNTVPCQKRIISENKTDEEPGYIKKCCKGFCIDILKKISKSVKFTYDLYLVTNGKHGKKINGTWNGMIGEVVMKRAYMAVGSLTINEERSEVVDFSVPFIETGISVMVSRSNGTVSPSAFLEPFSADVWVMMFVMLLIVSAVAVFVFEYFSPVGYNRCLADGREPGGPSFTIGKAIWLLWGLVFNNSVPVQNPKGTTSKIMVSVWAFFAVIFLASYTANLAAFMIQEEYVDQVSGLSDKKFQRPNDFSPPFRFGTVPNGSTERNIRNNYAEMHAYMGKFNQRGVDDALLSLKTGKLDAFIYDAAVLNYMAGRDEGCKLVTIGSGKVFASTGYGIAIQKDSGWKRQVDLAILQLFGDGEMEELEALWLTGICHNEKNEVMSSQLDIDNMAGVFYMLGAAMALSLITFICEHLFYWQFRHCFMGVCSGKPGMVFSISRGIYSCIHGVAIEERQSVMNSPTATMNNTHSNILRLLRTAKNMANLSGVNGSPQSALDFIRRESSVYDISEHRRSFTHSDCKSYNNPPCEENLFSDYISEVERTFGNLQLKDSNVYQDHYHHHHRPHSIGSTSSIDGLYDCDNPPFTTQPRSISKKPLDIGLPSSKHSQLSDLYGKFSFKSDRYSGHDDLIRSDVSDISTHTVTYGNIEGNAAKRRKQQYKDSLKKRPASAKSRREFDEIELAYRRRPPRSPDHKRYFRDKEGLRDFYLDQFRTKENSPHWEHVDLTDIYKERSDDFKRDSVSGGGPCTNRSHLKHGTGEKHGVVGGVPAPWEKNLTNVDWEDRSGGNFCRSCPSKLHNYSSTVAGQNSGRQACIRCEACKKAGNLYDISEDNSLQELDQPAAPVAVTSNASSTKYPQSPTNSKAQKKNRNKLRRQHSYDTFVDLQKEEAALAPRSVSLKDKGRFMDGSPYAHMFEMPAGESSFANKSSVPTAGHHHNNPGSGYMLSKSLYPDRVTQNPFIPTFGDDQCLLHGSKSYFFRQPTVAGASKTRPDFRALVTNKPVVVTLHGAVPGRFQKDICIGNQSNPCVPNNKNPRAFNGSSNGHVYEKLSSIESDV

[6] = system: NMDARs; parameters: method as in 3 sources, one per row (each row's own in cited_ref): ref Johnson and Ascher, 1987 ||| ref Chopra et al., 2015 ||| ref Lerma, 1992; details: cited from earlier work
[7] = system: GluN2B-containing di-heteromers; details: ref Kellner and Berlin, 2024; cited from earlier work

Nc1c2ccccc2nc2ccccc12 [9-aminoacridine]
current following removal [1]: a transient inward current

CC(C(O)c1ccc(O)cc1)N1CCC(Cc2ccccc2)CC1 (stereo not shown) [ifenprodil]
inhibition of agonist-evoked current [2]: no inhibitory effect was observed

CC12CC3CC(C)(C1)CC(N)(C3)C2 [memantine]
effect on EPSCs [3]: abolished
affinity for triheteromeric NMDARs ([4]; compared to NMDARs containing only GluN2B, ref Chen et al., 2020): lower affinity for triheteromeric NMDARs

N[C@@H](CCC(=O)O)C(=O)O [glutamate, L-glutamate, reference compound]
response to glutamate alone [5]: generated a significant current response
activation by glutamate alone ([6]; ref Johnson and Ascher, 1987): slightly activate the channel

Con-G: marine cone snail toxin, NMDAR antagonist targeting the GluN2B ligand binding domain (GEEELQENQELIREKSN; not fully specified (residues 3, 4, 7, 10, 14, C-terminus); ends and bridges not checked; UniProt P07231 81-97, looked up)
NMDAR activity [6]: NMDAR antagonist

NCCCNCCCCNCCCN [spermine]
potentiation of GluN2B-containing di-heteromers [7]: strongly potentiates GluN2B-containing di-heteromers
enhancement of triheteromeric NMDARs ([4]; ref Kellner and Berlin, 2024): fails to enhance triheteromeric NMDARs

pregnenolone sulfate
tail-like response on removal of modulator [6]: tail-like response
